One experiment addresses T1, CXCR3 (Homo sapiens, UniProt P49682).
T1 construct: expressed in transfected cells; host or cells: HEK293 / HEK293T cells, stably transfected; membrane preparations
T1 sequence (P49682 1-368): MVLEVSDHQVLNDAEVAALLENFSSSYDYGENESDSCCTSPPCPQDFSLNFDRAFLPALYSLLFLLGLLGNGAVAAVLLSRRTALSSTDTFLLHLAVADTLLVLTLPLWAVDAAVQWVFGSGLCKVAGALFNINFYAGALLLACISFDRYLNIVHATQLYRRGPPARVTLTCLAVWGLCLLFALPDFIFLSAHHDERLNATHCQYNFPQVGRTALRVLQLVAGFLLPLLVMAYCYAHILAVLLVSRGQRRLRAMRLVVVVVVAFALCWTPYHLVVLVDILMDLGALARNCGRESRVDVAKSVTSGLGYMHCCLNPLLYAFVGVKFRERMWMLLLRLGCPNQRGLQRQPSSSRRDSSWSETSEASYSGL
Description: [35S]GTPγS incorporation assay. In kind it is biochemical. To be noted: for CXCR3 Efficacy (%) ± SEM / Emax: % of CXCL11 mediated effect; for CXCR3 Efficacy (%) ± SEM / CXCR3 pEC50 ± SEM / Emax: membrane preparations of HEK293T stably expressing CXCR3; for CXCR3 mediated G protein activation (result in words): [35S]GTPγS incorporation; for CXCR3 pEC50 ± SEM: mean of three experiments in triplicate; for Emax: read-out: CXCR3 Efficacy (%) ± SEM. How it is done:
Membrane preparation for allosteric radioligand RAMX3 displacement and [^35S]GTPγS incorporation assays: The human embryonic kidney (HEK) cells stably expressing the human CXCR3 receptor were cultured in 150-mm cell culture plates in DMEM/F-12 supplemented with 10% fetal bovine serum (FBS), 2 mM L-glutamine, 1% penicillin-streptomycin, 300 µgmL^-1 Zeocin and incubated at 37 °C in a humid atmosphere with 5% CO2. At 100% confluency cells were washed with PBS twice, treated with Tris EDTA buffer (10 mM Tris, 0.5 mM EDTA, 5 mM KCl, 140 mM NaCl, pH 7.4), and harvested using a cell scraper. Cells were pelleted at 1100×g for 8 min at 4 °C, resuspended in Tris-EDTA-MgCl2 buffer (50mM Tris, 5 mM EDTA, 1.5 mM CaCl2, 5 mM MgCl2, 5 mM KCl, 120 mM NaCl, pH 7.4) and followed by lysis with an Ultra-Turrax. After centrifugation at 50,000•g, at 4°C for 18 min the membranes were resuspended in the binding buffer (50 mM Tris, 1 mM EDTA, 5 mM MgCl2 and subsequently homogenized with a glass-Teflon homogenizer (20 strokes). The homogenized membranes were shock-frozen in liquid nitrogen and stored at -80°C. The protein concentration was determined with the Lowry method with bovine serum albumin used as a standard.^35
[^35S]GTPγS incorporation assay: The [^35S]GTPγS incorporation assay was performed on membrane preparations of stably transfected HEK293 cells that expressed the CXCR3 receptor. The assay was carried out in 96-well plates at the final volume of 200 µL. The incubation buffer contained 20 mM HEPES, 10 mM MgCl2•6H20,100 mM NaCl and 100 mg/L saponin (pH 7.4). Membranes (30 µgmL^-1 of membrane protein), various concentrations of test compound and CXCL11, and 1 µM GDP were preincubated in the absence of [^35S]GTPγS for 30 min at 37 °C. After the addition of 0.10 nM [^35S]GTPγS membranes were incubated for additional 30 min at 37 °C. Incubation was terminated by filtration through Whatman GF/B filters soaked with ice cold PBS. The filter-bound radioactivity was measured as described above. Three to four experiments per compound were performed with each concentration in triplicate.
The activation of G proteins was explored in terms of CXCR3 mediated [^35S]GTPγS incorporation. In the [^35S]GTPγS incorporation assay the membrane preparations of HEK293T cells stably expressing CXCR3 were used. The activation of G proteins was monitored as the incorporation of [^35S]GTPγS and thus increase in the incorporated radioactivity. The potency and efficacy of the novel compounds was first compared to the reference compound 46/VUF10661. […] Table 1. The ability of the 46/VUF10661 based positive allosteric modulators to activate CXCR3 as measured in the [35S]GTPγS incorporation assay.[a]
(In general: Binding of GTPγS marks nucleotide exchange on a G protein.)

The target in a further experiment is T2, CXCR3-PK1 (Homo sapiens, UniProt P49682).
T2 construct: expressed in transfected cells; host or cells: HEK293 cells stably expressing beta-gal enzyme acceptor (PathHunter, DiscoveRx), transiently transfected
T2 sequence (P49682 1-368): T1 sequence (P49682 1-368)
In words: β-arrestin 2 recruitment assay (PathHunter, DiscoveRx), CXCR3-PK1 construct. In kind it is cell-based. The following applies: for Emax: % of CXCL11 mediated effect, read-out: CXCR3-PK1 efficacy (%) (converted); for Emax / CXCR3-PK1 pEC50 ± SEM: CXCR3-PK1; for CXCR3-PK1 pEC50 ± SEM: HEK293-T cells, PathHunter, two to three experiments in triplicate. How it is done:
(§1) β-arrestin 2 recruitment assay: The measurement of β-arrestin recruitment was performed utilizing the PathHunter assay purchased from DiscoveRx (DiscoveRx, Birmingham, U.K.) according to the manufacturer's protocol. HEK293 cells stably expressing β-gal enzyme acceptor were transiently transfected with the ProLink (PK1) tagged wildtype CXCR3 receptor using the TransIT-293 transfection reagent from Mirus (purchased from MoBiTec, Goettingen, Germany). The assay was carried out in 384-well plates containing 2000 cells in 20 µL. After incubation at 37°C (5% CO2, 95% relative humidity) overnight, various concentrations of test compounds or CXCL11 (prepared in PBS, pH 7.4, containing 0.20% BSA) were added and the incubation continued for 4 h. Detection mix was then added and incubated for further 60 min at room temperature. Chemiluminescence was determined with a microplate reader Clariostar (BMG labtech, Ortenberg, Germany).
(§2) The ability of the novel ligands according to the present invention to induce CXCR3-mediated β-arrestin 2 recruitment was investigated in the assay system PathHunter (DiscoveRx), which detects the recruitment of β-amestin 2 to the activated receptor using β-galactosidase (β-gal) enzyme fragment complementation. The inventors used two different ProLink tags, ProLink1 (PK1) and ProLink2 (PK2), of which PK2 has higher affinity for the enzyme acceptor to detect weak protein-protein interactions. The CXCR3-PK2 construct is readily able to detect the differences in the propensity of CXCL11 and CXCL10 to induce β-arrestin 2 recruitment at CXCR3. […] Table 3. Ability of the 46/VUF10661 based positive allosteric modulators to activate the CXCR3 as measured in the β-arrestin 2 recruitment assay (PathHunter, DiscoveRx).[a]
For orientation: Arrestin recruitment assays detect the binding of arrestin to an activated receptor.

In another experiment the target is T3, CXCR3-PK2 (Homo sapiens, UniProt P49682).
T3 construct: expressed in transfected cells
T3 sequence (P49682 1-368): T1 sequence (P49682 1-368)
In words: β-arrestin 2 recruitment assay (PathHunter, DiscoveRx), CXCR3-PK2 construct. The format is cell-based. To be noted: for Emax: % of CXCL11 mediated effect, read-out: CXCR3-PK2 efficacy (%) (converted); for Emax / CXCR3-PK2 pEC50 ± SEM: CXCR3-PK2; for CXCR3-PK2 pEC50 ± SEM: HEK293-T cells, PathHunter. How it is done:
as §1, §2
To investigate the efficacy of identified partial agonists in the assay format, the inventors used the CXCR3-PK2 construct, which is characterized by higher sensitivity to detect β-arrestin 2 recruitment. The compounds which appeared as weak partial agonists under CXCR3-PK1 conditions appeared as strong partial agonists under CXCR3-PK2 conditions with the efficacy increased up to 80% (Table 4). FAUC1036 reached the efficacy of 66%. […] Table 4. Ability of the compound 5 based positive allosteric modulators to activate the CXCR3 as measured in the β-arrestin 2 recruitment assay (PathHunter, DiscoveRx).[a]

For the compound `N[C@@H](CCCCNC(=O)[C@@H]1Cc2ccccc2CN1C(=O)CCC(=O)c1ccccc1)C(=O)NCC(c1ccccc1)c1ccccc1.O=C(O)C(F)(F)F` [Compound 25, (S)-1-((2,2-diphenylethyl)amino)-1-oxo-6-((S)-2-(4-oxo-4-phenylbutanoyl)-1,2,3,4-tetrahydroisoquinoline-3-carboxamido)hexan-2-aminium 2,2,2-trifluoroacetate], at CXCR3, the “CXCR3 Efficacy (%) ± SEM” value was “No effect”, the “CXCR3 mediated G protein activation (result in words)” value is reported as “failed to induce CXCR3 mediated G protein activation” and the “CXCR3 pEC50 ± SEM” value is listed as “No effect”. On CXCR3-PK1, the Emax is 17% and the “CXCR3-PK1 pEC50 ± SEM” value came out at 6.80±0.21. Moreover, on CXCR3-PK2, the Emax is 27% and the “CXCR3-PK2 pEC50 ± SEM” value was found to be 6.51±0.34.

Turning to `N[C@@H](CCCCNC(=O)[C@@H]1Cc2ccccc2CN1C(=O)CCCC(=O)c1ccccc1)C(=O)NCC(c1ccccc1)c1ccccc1.O=C(O)C(F)(F)F` [Compound 26, (S)-1-((2,2-diphenylethyl)amino)-1-oxo-6-((S)-2-(5-oxo-5-phenylpentanoyl)-1,2,3,4-tetrahydroisoquinoline-3-carboxamido)hexan-2-aminium 2,2,2-trifluoroacetate], at CXCR3, the “CXCR3 Efficacy (%) ± SEM” value was “No effect” and the “CXCR3 pEC50 ± SEM” value was “No effect”. At CXCR3-PK1, the Emax was 20% and the “CXCR3-PK1 pEC50 ± SEM” value stood at 6.73±0.22. At CXCR3-PK2, the Emax was 91% and the “CXCR3-PK2 pEC50 ± SEM” value is listed as 6.90±0.21.

Turning to `CC(C)(C)OC(=O)N[C@@H](CCCCNC(=O)[C@@H]1Cc2ccccc2CN1C(=O)CCC(=O)O)C(=O)NCC(c1ccccc1)c1ccccc1` [Compound 27, 4-((S)-3-(((S)-5-((tert-butoxycarbonyl)amino)-6-((2,2-diphenylethyl)amino)-6-oxohexyl)carbamoyl)-3,4-dihydroisoquinolin-2(1H)-yl)-4-oxobutanoic acid], at CXCR3, the “CXCR3 Efficacy (%) ± SEM” value is “No effect” and the “CXCR3 pEC50 ± SEM” value is on record as “No effect”. Moreover, on CXCR3-PK1, the “β-arrestin 2 recruitment, intrinsic agonism (result in words)” value is on record as “no agonistic effect” and the “CXCR3-PK1 pEC50 ± SEM” value was “No effect”. Moreover, at CXCR3-PK2, the “CXCR3-PK2 pEC50 ± SEM” value is recorded as “No effect”.

With `N[C@@H](CCCCNC(=O)[C@@H]1Cc2ccccc2CN1)C(=O)NCC(c1ccccc1)c1ccccc1.O=C(O)C(F)(F)F.O=C(O)C(F)(F)F` [Compound 28, (S)-3-(((S)-5-ammonio-6-((2,2-diphenylethyl)amino)-6-oxohexyl)carbamoyl)-1,2,3,4-tetrahydroisoquinolin-2-ium 2,2,2-trifluoroacetate], at CXCR3, the Emax worked out at 40 ± 7% and the “CXCR3 pEC50 ± SEM” value came to 5.65±0.23. For the same compound, at CXCR3-PK1, the Emax was 14% and the “CXCR3-PK1 pEC50 ± SEM” value is listed as 6.80±0.45. Besides, on CXCR3-PK2, the Emax is 85% and the “CXCR3-PK2 pEC50 ± SEM” value was 6.55±0.26.

On to `CC(C)(C)OC(=O)N[C@H](CCCCNC(=O)[C@@H]1Cc2ccccc2CN1C(=O)CCC(=O)c1ccccc1)C(=O)NCC(c1ccccc1)c1ccccc1` [Compound 34, Tert-butyl ((R)-1-((2,2-diphenylethyl)amino)-1-oxo-6-((S)-2-(4-oxo-4-phenylbutanoyl)-1,2,3,4-tetrahydroisoquinoline-3-carboxamido)hexan-2-yl)carbamate], for which, at CXCR3, the “CXCR3 Efficacy (%) ± SEM” value is on record as “No effect”, the “CXCR3 mediated G protein activation (result in words)” value is recorded as “failed to induce CXCR3 mediated G protein activation” and the “CXCR3 pEC50 ± SEM” value was “No effect”. In addition, on CXCR3-PK1, the Emax was 16% and the “CXCR3-PK1 pEC50 ± SEM” value turned out to be 6.95±0.50. In addition, on CXCR3-PK2, the “β-arrestin 2 recruitment agonism using PK2 tag (result in words)” value is on record as “reached the levels of full agonism”, the Emax was 88% and the “CXCR3-PK2 pEC50 ± SEM” value is 6.86±0.19.

With `N[C@H](CCCCNC(=O)[C@@H]1Cc2ccccc2CN1C(=O)CCC(=O)c1ccccc1)C(=O)NCC(c1ccccc1)c1ccccc1.O=C(O)C(F)(F)F` [Compound 35, (R)-1-((2,2-diphenylethyl)amino)-1-oxo-6-((S)-2-(4-oxo-4-phenylbutanoyl)-1,2,3,4-tetrahydroisoquinoline-3-carboxamido)hexan-2-aminium 2,2,2-trifluoroacetate], on CXCR3, the Emax was 25 ± 4% and the “CXCR3 pEC50 ± SEM” value was 8.01±0.31. In addition, at CXCR3-PK1, the Emax is 28% and the “CXCR3-PK1 pEC50 ± SEM” value was 7.16±0.33. On CXCR3-PK2, the Emax was 79% and the “CXCR3-PK2 pEC50 ± SEM” value came out at 6.52±0.43.

For `CC(C)(C)OC(=O)NCCCC[C@@H](NC(=O)[C@@H]1Cc2ccccc2CN1C(=O)CCC(=O)c1ccccc1)C(=O)NCC(c1ccccc1)c1ccccc1` [Compound 45, Tert-butyl ((R)-6-((2,2-diphenylethyl)amino)-6-oxo-5-((S)-2-(4-oxo-4-phenylbutanoyl)-1,2,3,4-tetrahydroisoquinoline-3-carboxamido)hexyl)carbamate], at CXCR3, the Emax was 33 ± 7% and the “CXCR3 pEC50 ± SEM” value was found to be 5.97±0.34. Also, at CXCR3-PK1, the Emax was approximately 36% and the “CXCR3-PK1 pEC50 ± SEM” value turned out to be 6.63±0.17. Further, on CXCR3-PK2, the Emax is 30% and the “CXCR3-PK2 pEC50 ± SEM” value was found to be 7.23±0.69.

For the origin of these results see EP3156398A1, “AGONISTS OF THE CHEMOKINE RECEPTOR CXCR3” (Friedrich-Alexander-Universität Erlangen-Nürnberg, priority 2015, dated 2017).
